By solubility is commonly meant how much of the substance goes into solution per volume.

≈ marks a conversion by molar mass, not a printed value. Where two headings read alike, the source gives them in different places.

A short description of data set [1]: Thermogravimetric analysis (thermal stability). It is filed as physicochemical. The method, then: Taking Examples 2 and 4 as examples, the thermal stability of DPG raw materials, HP-β-CD, β-CDP and their respective inclusion complexes were analyzed by thermogravimetric analysis, and the results were shown in FIG. 4.
The nature of data set [2]: Solubilization experiment by ultraviolet-visible spectra (244 nm). Particulars: water, thermodynamic from solid. From the text: Taking Examples 2 and 4 as examples, the solubilization effect was verified by comparing and analyzing absorption peaks of ultraviolet-visible spectra of the DPG raw material, the DPG-β-CDP inclusion complex, and the DPG-HP-β-CD inclusion complex. The results were shown in FIG. 5, β-CDP and HP-β-CD had no ultraviolet absorption peaks.

For data set [3] the following is noted: in water at 25° C.; cited from earlier work.
Data set [4] is classed as physicochemical. The method, then:
1. Determination of Inclusion Ratio and Inclusion Constant of Inclusion Complex by Ultraviolet-Visible Spectroscopy
According to a Benesi-Hildebrand method (J. Am. Chem. Soc. 1949, 71, 8, 2703-2707), it was obtained that: at 25° C., the complexation stability constants of HP-β-CD and β-CDP with DPG were 26.87 L/mol and 27.88 L/mol, respectively.

For `N=C(Nc1ccccc1)Nc1ccccc1` [DPG, 1,3-diphenylguanidine], the “second decomposition (temperature)” value in data set [1] worked out at 256 °C. Further, the “began to decompose (temperature)” value in data set [1] (first decomposition) is 166 °C. Besides, the solubility is 315 µg/mL (≈ 1490 µM) in data set [2] and “about 315 mg/L” in data set [3].
With β-cyclodextrin polymer [β-CDP], in data set [4], the “complexation stability constant with DPG” value was 27.88 L/mol.
On the same count and under the same terms, in the case of hydroxypropyl-ß-cyclodextrin [HP-β-CD] it was 26.87 L/mol.

The values are drawn from patent US12545748B2, “Water-soluble 1,3-diphenylguanidine (DPG)-based supramolecular inclusion complex and preparation method and use thereof” (YANGZHOU UNIVERSITY, priority 2021, dated 2026).
